Reference: patent US20170275302A1, “INHIBITORS OF THE RENAL OUTER MEDULLARY POTASSIUM CHANNEL” (Merck Sharp & Dohme Corp., priority 2014, published 2017)

molecular target: T1, hROMK (hKir1.1) (Homo sapiens, UniProt P48048); assay: Thallium Flux Assay (ROMK channel functional thallium flux assay, FLIPR-Tetra); format: cell-based; settings: HEK293 cells stably expressing hROMK (hKir1.1); FluxOR thallium flux, 30 min compound incubation; concentration inhibiting 50% of ROMK thallium flux signal
T1 construct: expressed in transfected cells
T1 sequence (P48048 1-391): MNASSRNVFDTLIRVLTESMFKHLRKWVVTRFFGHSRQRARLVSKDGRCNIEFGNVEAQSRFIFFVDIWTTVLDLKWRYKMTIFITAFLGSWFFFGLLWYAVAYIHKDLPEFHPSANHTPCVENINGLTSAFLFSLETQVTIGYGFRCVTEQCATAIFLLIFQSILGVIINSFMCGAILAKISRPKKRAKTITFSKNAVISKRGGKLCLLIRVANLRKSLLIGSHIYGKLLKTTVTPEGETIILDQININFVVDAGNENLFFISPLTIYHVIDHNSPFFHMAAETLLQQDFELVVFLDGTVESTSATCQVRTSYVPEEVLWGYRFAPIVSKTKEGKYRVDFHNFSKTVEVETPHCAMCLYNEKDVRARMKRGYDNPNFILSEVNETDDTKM
Method: The following Thallium Flux Assay was performed on each of the final product compounds in the Examples.
HEK293 cells stably expressing hROMK (hKir1.1) were grown at 37° C. in a 10% CO2 humidified incubator in complete growth media: Dulbecco's Modified Eagle Medium supplemented with non-essential amino acids, Penicillin/Streptomycin/Glutamine, G418 and FBS. At >80% confluency, the media was aspirated from the flask and rinsed with 10 mL calcium/magnesium-free phosphate buffered saline (PBS). 5 mL of 1× trypsin (prepared in Ca/Mg Free PBS) was added to T-225 flask and the flask was returned to 37° C./CO2 incubator for 2-3 minutes. To dislodge the cells, the side of the flask was gently banged with one's hand. The cells were completely titrated and then the cells were transferred to 25 mL complete media, centrifuged at 1,500 rpm for 6 min followed by resuspension in complete growth media, and the cell concentration was determined. For typical re-seeding, 4E6 cells/T-225 flask will attain >80% confluency in 4 days. Under ideal growth conditions and appropriate tissue culture practices, this cell line is stable for 40-45 passages.
Compound Buffer (per microplate): 20 mL Probenecid/Assay Buffer; 0.3 mM ouabain (10 mM ouabain in water can be stored in amber bottle/aluminum foil at room temperature); Test compound
Stimulant Buffer (prepared at 5× final concentration in 1× FluxOR™Chloride-Free Buffer): 7.5 mM thallium sulfate and 0.75 mM potassium sulfate (to give a final assay concentration of 3 mM Thallium/0.3 mM potassium). Store at 4° C. when not in use. If kept sterile, this solution is good for months.
The ROMK channel functional thallium flux assay was performed in 384 wells, using the FLIPR-Tetra instrument. HEK-hKir1.1 cells were seeded in Poly-D-Lysine microplates and kept in a 37° C.-10% CO2 incubator overnight. On the day of the experiment, the growth media was replaced with the FluxOR™ reagent loading buffer and incubated, protected from light, at ambient temperature (23-25° C.) for 90 min. The loading buffer was replaced with assay buffer±test compound followed by 30 min incubation at ambient temperature, where the thallium/potassium stimulant was added to the microplate.
• 1. Seed HEK-hKir1.1 cells (50 μl at 20,000 cells/well) in 384-well PDL coated Microplates • 2. Allow cells to adhere overnight in humidified 37° C./10% CO2 incubator • 3. Completely remove cell growth media from microplate and replace with 25 μl loading buffer • 4. Incubate Microplate at room temperature, protected form light, for 90 min • 5. Remove loading buffer and replace with 25 μl 1× Assay Buffer±test compound. • 6. Incubate microplate at room temperature, protected from light, for 30 min • 7. At FLIPR-Tetra 384: Add stimulant (thallium/potassium) solution to microplate and monitor fluorescence. Excitation=400 nm, Emission=460 & 580 nm. Collect data for ˜10 min.
The fluorescence intensity of wells containing 3 μM of a standard control ROMK inhibitor of the present invention was used to define the ROMK-sensitive component of thallium flux. Fluorescence in the presence of test compounds was normalized to control values to provide % fluorescence change. IC50 values represent the concentration of compound that inhibited 50% of the ROMK thallium flux signal.

Structure (SMILES)	IC50 [µM]
Cc1c([C@@H](O)CN2CCC3(CC2)CCN(c2cc4cncnc4s2)C3=O)ccc2c1COC2=O [Example 36]	0.19
Cc1c([C@@H](O)CN2CCC3(CC2)CCN(c2cc4cnccc4s2)C3=O)ccc2c1COC2=O [Example 37]	0.117
Cc1c([C@@H](O)CN2CCC3(CC2)CCN(c2ccnc4c2OCO4)C3=O)ccc2c1COC2=O [Example 38, (R)-2-([1,3]dioxolo[4,5-b]pyridin-7-yl)-8-(2-hydroxy-2-(4-methyl-1-oxo-1,3-dihydroisobenzofuran-5-yl)ethyl)-2,8-diazaspiro[4.5]decan-1-one]	0.0549
Cc1c([C@@H](O)CN2CCC3(CC2)CC(=O)N(c2cn4ncnc4cn2)C3)ccc2c1COC2=O [Example 39, (R)-2-([1,2,4]triazolo[1,5-a]pyrazin-6-yl)-8-(2-hydroxy-2-(4-methyl-1-oxo-1,3-dihydroisobenzofuran-5-yl)ethyl)-2,8-diazaspiro[4.5]decan-3-one]	0.458
Cc1c([C@@H](O)CN2CCC3(CC2)CC(=O)N(c2ccc4nc(C(F)(F)F)nn4c2)C3)ccc2c1COC2=O [Example 40]	0.894
Cc1c([C@@H](O)CN2CCC3(CC2)CC(=O)N(c2cnn4ncccc24)C3)ccc2c1COC2=O [Example 41]	0.336
N#Cc1ccc(C(O)CN2CCC3(CC2)CCN(c2ccc4nncn4n2)C3)nc1 (stereo not shown) [Example 42]	0.117
N#Cc1ccc(C(O)CN2CCC3(CC2)CCN(c2ccc4nncn4n2)C3)nc1 (stereo not shown) [Example 43]	0.361
COc1cc([C@H](O)CN2CCC3(CC2)CCN(c2ccc4nncn4n2)C3)ncc1C#N [Example 44]	0.124
COc1cc([C@@H](O)CN2CCC3(CC2)CCN(c2ccc4nncn4n2)C3)ncc1C#N [Example 45, 6-(2-(2-([1,2,4]triazolo[4,3-b]pyridazin-6-yl)-2,8-diazaspiro[4.5]decan-8-yl)-1-hydroxyethyl)-4-methoxynicotinonitrile]	0.0459
Cc1nc(C(O)CN2CCC3(CC2)CCN(c2ccc4nncn4n2)C3)ccc1C#N (stereo not shown) [Example 46, 6-(2-(2-([1,2,4]triazolo[4,3-b]pyridazin-6-yl)-2,8-diazaspiro[4.5]decan-8-yl)-1-hydroxyethyl)-2-methylnicotinonitrile]	0.077
Cc1nc(C(O)CN2CCC3(CC2)CCN(c2ccc4nncn4n2)C3)ccc1C#N (stereo not shown) [Example 47]	0.147
Cc1cc(C#N)cnc1C(O)CN1CCC2(CC1)CCN(c1ccc3nncn3n1)C2 (stereo not shown) [Example 48]	0.0881
Cc1cc(C#N)cnc1C(O)CN1CCC2(CC1)CCN(c1ccc3nncn3n1)C2 (stereo not shown) [Example 49]	0.208
COc1cc(C(O)CN2CCC3(CC2)CCN(c2ccc4nncn4n2)C3)ccc1C#N (stereo not shown) [Example 50]	0.0415
COc1cc(C(O)CN2CCC3(CC2)CCN(c2ccc4nncn4n2)C3)ccc1C#N (stereo not shown) [Example 51]	0.0487
COc1cc(C(O)CN2CCC3(CC2)CCN(c2ccc4nncn4n2)C3)c(Cl)cc1C#N (stereo not shown) [Example 56]	0.0276
Cc1nc(C(O)CN2CCC3(CC2)CC(=O)N(c2ccc4nncn4n2)C3)ccc1C#N (stereo not shown) [Example 57]	0.248
COc1cc(C(O)CN2CCC3(CC2)CC(=O)N(c2ccc4nncn4n2)C3)ccc1C#N (stereo not shown) [Example 58]	0.413
N#Cc1ccc(C(O)CN2CCC3(CC2)CC(=O)N(c2ccc4nncn4n2)C3)nc1 (stereo not shown) [Example 59]	0.412

Structure (SMILES)	IC50 [µM]
COc1cc([C@H](O)CN2CCC3(CC2)CC(=O)N(c2ccc4nncn4n2)C3)ncc1C#N [Example 60]	0.78
COc1cc([C@@H](O)CN2CCC3(CC2)CC(=O)N(c2ccc4nncn4n2)C3)ncc1C#N [Example 61]	0.228
N#Cc1ccc(C(O)CN2CCC3(CCN(c4ccc5nncn5n4)CC3)C2)nc1 (stereo not shown) [Example 62]	0.129
N#Cc1ccc(C(O)CN2CCC3(CCN(c4ccc5nncn5n4)CC3)C2)nc1 (stereo not shown) [Example 63]	0.154
COc1cc([C@H](O)CN2CCC3(CCN(c4ccc5nncn5n4)CC3)C2)ncc1C#N [Example 64]	0.0918
Cc1cc(C#N)cnc1C(O)CN1CCC2(CCN(c3ccc4nncn4n3)CC2)C1 (stereo not shown) [Example 65, 6-(2-(8-([1,2,4]triazolo[4,3-b]pyridazin-6-yl)-2,8-diazaspiro[4.5]decan-2-yl)-1-hydroxyethyl)-5-methylnicotinonitrile]	0.0347
Cc1cc(C#N)cnc1C(O)CN1CCC2(CCN(c3ccc4nncn4n3)CC2)C1 (stereo not shown) [Example 66]	0.0728
Cc1nc(C(O)CN2CCC3(CCN(c4ccc5nncn5n4)CC3)C2)ccc1C#N (stereo not shown) [Example 67, 6-(2-(8-([1,2,4]triazolo[4,3-b]pyridazin-6-yl)-2,8-diazaspiro[4.5]decan-2-yl)-1-hydroxyethyl)-2-methylnicotinonitrile]	0.0642
Cc1nc(C(O)CN2CCC3(CCN(c4ccc5nncn5n4)CC3)C2)ccc1C#N (stereo not shown) [Example 68]	0.0859
Cc1c([C@@H](O)CN2CCC3(CCN(c4ccc5nncn5n4)CC3)C2)ccc2c1COC2=O [Example 70, (R)-5-(2-(8-([1,2,4]triazolo[4,3-b]pyridazin-6-yl)-2,8-diazaspiro[4.5]decan-2-yl)-1-hydroxyethyl)-4-methylisobenzofuran-1(3H)-one]	0.031
COc1cc([C@@H](O)CN2CCC3(CC2)CCN(c2ccc4nnnn4n2)C3)ncc1C#N [Example 71, (S)-6-(1-hydroxy-2-(2-(tetrazolo[1,5-b]pyridazin-6-yl)-2,8-diazaspiro[4.5]decan-8-yl)ethyl)-4-methoxynicotinonitrile]	0.208
COc1cc([C@@H](O)CN2CCC3(CC2)CCN(c2nn4cnnc4s2)C3)ncc1C#N [Example 72]	0.25
COc1cc([C@@H](O)CN2CCC3(CC2)CCN(c2ccc4nncn4c2)C3)ncc1C#N [Example 73]	0.221
Cc1c([C@@H](O)CN2CCC3(CC2)CCN(c2ccc4nncn4n2)C3=O)ccc2c1COC2=O [Example 74]	0.116
COc1cc([C@@H](O)CN2CCC3(CC2)CCN(c2ccc4nncn4n2)C3=O)ncc1C#N [Example 75]	0.608
Cc1c([C@@H](O)CN2CCC3(CCCN(c4ccc5nncn5n4)C3)CC2)ccc2c1COC2=O [Example 76]	0.0976
COc1cc([C@H](O)CN2CCC3(CC2)CCN(c2ccc4c(c2C)COC4=O)C3)ncc1C#N [Example 77, (R)-6-(1-hydroxy-2-(2-(4-methyl-1-oxo-1,3-dihydroisobenzofuran-5-yl)-2,8-diazaspiro[4.5]decan-8-yl)ethyl)-4-methoxynicotinonitrile]	0.0664
Cc1nc(-n2cnnn2)ccc1[C@@H](O)CN1CCC2(CC1)CCN(c1ccc3c(c1C)COC3=O)C2 [Example 78]	0.622
Cc1c([C@@H](O)CN2CCC3(CC2)CCN(c2ccc4c(c2C)COC4=O)C3)ccc2c1COC2=O [Example 79, (R)-5-(1-hydroxy-2-(2-(4-methyl-1-oxo-1,3-dihydroisobenzofuran-5-yl)-2,8-diazaspiro[4.5]decan-8-yl)ethyl)-4-methylisobenzofuran-1(3H)-one]	0.019
Cc1c([C@@H](O)CN2CCC3(CC2)CN(c2ccc4c(c2C)COC4=O)C(=O)O3)ccc2c1COC2=O [Example 81, (R)-8-(2-hydroxy-2-(4-methyl-1-oxo-1,3-dihydroisobenzofuran-5-yl)ethyl)-3-(4-methyl-1-oxo-1,3-dihydroisobenzofuran-5-yl)-1-oxa-3,8-diazaspiro[4.5]decan-2-one]	0.0914
